Our source for the pest or weed control values is patent US8921382B2, “Thiazolo[5,4-d] pyrimidines and their use as agrochemicals” (Dow AgroSciences, LLC., priority 2010, dated 2014).

Holding throughout (assay type): in vivo
Test [1] deals with Pyricularia oryzae. Kind of test: whole plant or invertebrate. The settings on record: foliar, read-out: Activity against Fungal Diseases PYRIOR (percent disease control).
Test [2] deals with Puccinia recondita tritici. Kind of test: Leaf Rust of Wheat foliar spray test, inoculated one day after treatment. The following applies: wheat plants, read-out: Activity against Fungal Diseases PUCCRT (percent disease control); for pest or weed control at 200 ppm: applied to foliage at 200 ppm; for pest or weed control at 3 ppm: Tested at 3 ppm. The method, then: (§1) Fungicide activity data are the level (in percent) at which the given disease was controlled when the given compound was applied to the foliage of the plants at 200 ppm. In a few cases (noted in the table) the compound was applied to the plants at 25 ppm or 3 ppm. The plants were inoculated with the fungus one day after treatment. ***=80-100% control; **=50-79% control; *=0-49% control. […] The activity of the compounds as effective fungicides was determined by applying the compounds to plants and observing control of fungal disease. […] All plants were inoculated with spores of the fungus the day after treatment, then incubated in an environment conducive to disease development. Disease severity was evaluated 4 to 25 days (d) later, depending on the speed of disease development. The following experiments were performed in the laboratory to determine the fungicidal efficacy of the compounds of the invention. […] Each pot contained 3-8 seedlings. These plants were sprayed until wet with the formulated test compounds. On the following day, the leaves were inoculated with an aqueous spore suspension of Puccinia recondita tritici and the plants were kept in high humidity overnight to permit spores to germinate and infect the leaf. The plants were then transferred to a greenhouse until disease developed on untreated control plants. […] The effectiveness of the test compounds at controlling disease when sprayed on leaves was determined by assessing the severity of disease on treated plants, then converting the severity to percent control based on the level of disease on untreated, inoculated plants.

The test system of test [3] is Septoria tritici. Description: Septoria Blotch of Wheat foliar spray test, inoculated one day after treatment. The settings on record: Zymoseptoria tritici, wheat plants, read-out: Activity against Fungal Diseases SEPTTR (percent disease control); for pest or weed control at 25 ppm: Tested at 25 ppm; for pest or weed control at 200 ppm: applied to foliage at 200 ppm. The method, then:
as §1, with “3-10” for “3-8”, “compound.” for “compounds.”, “Septoria” for “Puccinia recondita”, “(one day in a dark dew chamber followed by two days in a lighted dew chamber)” for “overnight”

As to `COc1ccc(C(C)Nc2ncnc3scnc23)cc1` (stereo not shown) [Compound 1, [1-(4-Methoxyphenyl)-ethyl]-thiazolo[5,4-d]pyrimidin-7-yl-amine], the pest or weed control at 200 ppm in test [1] and in test [2] was 80 to 100% each time.
With `N#Cc1ccnc(Oc2ccc(CCNc3ncnc4scnc34)cc2)c1` [Compound 2, 2-{4-[2-(thiazolo[5,4-d]pyrimidin-7-ylamino)-ethyl]-phenoxy}-isonicotinonitrile], the pest or weed control at 200 ppm in test [1] and in test [2] was 80 to 100% in each case. In test [3], the pest or weed control at 25 ppm fell in the range of 50 to 79%.
For the compound `Oc1ccc(CCNc2ncnc3scnc23)cc1` [Compound 3, 4-[2-(thiazolo[5,4-d]pyrimidin-7-ylamino)-ethyl]-phenol], the pest or weed control at 200 ppm in test [1] and in test [2] was 0 to 49% throughout. The pest or weed control at 25 ppm in test [3] is 0 to 49%.
In the case of `FC(F)(F)COc1ccc(CCNc2ncnc3scnc23)cn1` [Compound 4, thiazolo[5,4-d]pyrimidin-7-yl-{2-[6-(2,2,2-trifluoroethoxy)-pyridin-3-yl]-ethyl}-amine], the pest or weed control at 200 ppm in test [1] and in test [2] was 80 to 100% throughout. For the same compound, the pest or weed control at 25 ppm in test [3] lay within 0 to 49%.
`Fc1nc(F)c(F)c(Oc2ccc(CCNc3ncnc4scnc34)cc2)c1F` [Compound 5, {2-[4-(2,3,5,6-tetrafluoropyridin-4-yloxy)-phenyl]-ethyl}-thiazolo[5,4-d]pyrimidin-7-ylamine]: the pest or weed control at 3 ppm in test [2] was in the range of 80 to 100%. Moreover, the pest or weed control at 25 ppm in test [3] was in the range of 0 to 49%.
For `CC(Cc1ccc(Oc2c(F)cnc(C(F)(F)F)c2F)cc1)Nc1ncnc2scnc12` (stereo not shown) [Compound 14, {2-[4-(3,5-Difluoro-2-trifluoromethylpyridin-4-yloxy)-phenyl]-1-methyl-ethyl}-thiazolo[5,4-d]pyrimidin-7-ylamine], the pest or weed control at 3 ppm in test [2] lay within 0 to 49%. The pest or weed control at 25 ppm in test [3] was in the range of 80 to 100%.
Take `COc1cc(CCNc2ncnc3scnc23)ccc1Oc1cc(C(F)(F)F)ccn1` [Compound 17, {2-[3-methoxy-4-(4-trifluoromethylpyridin-2-yloxy)-phenyl]-ethyl}-thiazolo[5,4-d]pyrimidin-7-ylamine]: the pest or weed control at 3 ppm in test [2] is 80 to 100%. Also, the pest or weed control at 25 ppm in test [3] was 80 to 100%.
As for `COc1ccc(CCNc2ncnc3scnc23)cc1C` [Compound 19, [2-(4-methoxy-3-methylphenyl)-ethyl]-thiazolo[5,4-d]pyrimidin-7-ylamine], the pest or weed control at 200 ppm in test [2] was 80 to 100%; in test [3], 50 to 79%.
As for `Cc1cc(CCNc2ncnc3scnc23)ccc1O` [Compound 20, 2-methyl-4-[2-(thiazolo[5,4-d]pyrimidin-7-ylamino)-ethyl]-phenol], the pest or weed control at 200 ppm in test [2] and in test [3] was 0 to 49% in each case.
For the compound `COc1cc(CCNc2ncnc3scnc23)ccc1Oc1cnccc1C(F)(F)F` [Compound 29, {2-[3-methoxy-4-(4-trifluoromethylpyridin-3-yloxy)-phenyl]-ethyl}-thiazolo[5,4-d]pyrimidin-7-ylamine], the pest or weed control at 3 ppm in test [2] was in the range of 80 to 100%. Besides, the pest or weed control at 25 ppm in test [3] is 50 to 79%.
With `Cc1cc(CCN(c2nc(C(F)(F)F)c(Cl)s2)c2ncnc3scnc23)ccc1Oc1nc(C(F)(F)F)c(Cl)s1` [Compound 45, (5-chloro-4-trifluoromethylthiazol-2-yl)-{2-[4-(5-chloro-4-trifluoromethylthiazol-2-yloxy)-3-methylphenyl]-ethyl}-thiazolo[5,4-d]pyrimidin-7-ylamine], the pest or weed control at 3 ppm in test [2] lay within 0 to 49%. Also, the pest or weed control at 25 ppm in test [3] was 0 to 49%.
For the compound `Cc1cc(CCNc2ncnc3scnc23)ccc1Oc1ccncc1C(F)(F)F` [Compound 47, {2-[3-methyl-4-(3-trifluoromethylpyridin-4-yloxy)-phenyl]-ethyl}-thiazolo[5,4-d]pyrimidin-7-ylamine], the pest or weed control at 200 ppm in test [1], in test [2] and in test [3] was 80 to 100% throughout.
In the case of `COc1cc(CCNc2ncnc3scnc23)ccc1Oc1c(Cl)cnc(C(F)(F)F)c1Cl` [Compound 48, {2-[4-(3,5-dichloro-2-trifluoromethylpyridin-4-yloxy)-3-methoxyphenyl]-ethyl}-thiazolo[5,4-d]pyrimidin-7-ylamine], the pest or weed control at 200 ppm in test [1], in test [2] and in test [3] was 80 to 100% each time.
Consider `FC(F)(F)c1ccc(Oc2ccc(CCNc3ncnc4scnc34)cc2)nc1` [Compound 50, thiazolo[5,4-d]pyrimidin-7-yl-{2-[4-(5-trifluoromethylpyridin-2-yloxy)-phenyl]-ethyl}-amine], for which the pest or weed control at 3 ppm in test [2] was in the range of 80 to 100%. Also, the pest or weed control at 25 ppm in test [3] lay within 80 to 100%.
Regarding `COc1cc(CCNc2ncnc3scnc23)ccc1Oc1ccc(C(F)(F)F)cn1` [Compound 51, {2-[3-methoxy-4-(5-trifluoromethylpyridin-2-yloxy)-phenyl]-ethyl}-thiazolo[5,4-d]pyrimidin-7-ylamine], the pest or weed control at 3 ppm in test [2] was 80 to 100%. Also, in test [3], the pest or weed control at 25 ppm is 80 to 100%.
Consider `COc1cc(CCNc2ncnc3scnc23)ccc1Oc1cc(C(F)(F)F)ncn1` [Compound 54, {2-[3-methoxy-4-(6-trifluoromethylpyrimidin-4-yloxy)-phenyl]-ethyl}-thiazolo[5,4-d]pyrimidin-7-ylamine], for which the pest or weed control at 200 ppm in test [2] and in test [3] was 80 to 100% each time.
In the case of `COc1ccc(CCNc2ncnc3scnc23)c(F)c1` [Compound 55, [2-(2-fluoro-4-methoxyphenyl)-ethyl]-thiazolo[5,4-d]pyrimidin-7-ylamine], the pest or weed control at 200 ppm in test [2] lay in the range of 80 to 100%; in test [3], 0 to 49%.
Turning to `COc1ccc(CCNc2ncnc3scnc23)c(C)c1` [Compound 56, [2-(4-methoxy-2-methylphenyl)-ethyl]-thiazolo[5,4-d]pyrimidin-7-ylamine], the pest or weed control at 200 ppm was in the range of 0 to 49% in test [2] and 50 to 79% in test [3].
As for `Cc1cc(O)ccc1CCNc1ncnc2scnc12` [Compound 57, 3-methyl-4-[2-(thiazolo[5,4-d]pyrimidin-7-ylamino)-ethyl]-phenol], the pest or weed control at 200 ppm in test [2] and in test [3] was 0 to 49% in each case.
As to `Oc1ccc(CCNc2ncnc3scnc23)c(F)c1` [Compound 58, 3-fluoro-4-[2-(thiazolo[5,4-d]pyrimidin-7-ylamino)-ethyl]phenol], the pest or weed control at 200 ppm in test [2] and in test [3] was 0 to 49% throughout.
`Fc1cc(Oc2cc(C(F)(F)F)ccn2)ccc1CCNc1ncnc2scnc12` [Compound 60, {2-[2-fluoro-4-(4-trifluoromethylpyridin-2-yloxy)-phenyl]-ethyl}-thiazolo[5,4-d]pyrimidin-7-ylamine]: the pest or weed control at 200 ppm in test [2] and in test [3] was 80 to 100% throughout.
On to `Fc1cc(Oc2cc(C(F)(F)F)ncn2)ccc1CCNc1ncnc2scnc12` [Compound 63, {2-[2-fluoro-4-(6-trifluoromethylpyrimidin-4-yloxy)-phenyl]-ethyl}-thiazolo[5,4-d]pyrimidin-7-ylamine], for which the pest or weed control at 200 ppm in test [2] and in test [3] was 80 to 100% each time.
